The values that follow are results of earlier work, collected in patent US11938184B2, “Compositions and methods for treating Crohn's Disease and related conditions and infections” (priority 2012, dated 2024).

The data set deals with Crohn's disease fistulae.

As to infliximab, the response in fistulae (ACCENT 2 trial, after 14 weeks) is listed as 60%. Also, the fistulae maintaining closure (ACCENT 2 trial, at 1 year) is 36%. Moreover, for the setting “infliximab alone”, the “healing of perianal fistulae” value was 46-78% and the “healing of recto-vaginal fistulae” value is 14-30%. In addition, the fistulae initially healed (initial phase II and subsequent phase III trials, 296 patients) was 56-68%. Besides, the “median duration of fistula closure” value (normally requiring 3 doses of infliximab) is reported as “approximately 3 months”.
